For 32 compounds, GI50 and TGI results are on record in PubChem BioAssay (NCI).

Several values for one entry are separate records, joined by “and”; a condition that tells them apart may be missing. Equal values may be shown once.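 All cell lines were grown in 96-well plates and treated with compound for 48 hours. At the GI50, growth is halved. TGI is the concentration that stops growth completely.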 A value given as a limit tells only on which side of the number the result lay.

The assay has as its system MDA-MB-468 breast. In words: growth of human tumour cells (NCI), 48 h.

Turning to `C[C@@H](Nc1nc(N[C@H](C)C(F)(F)F)nc(-c2cccc(Cl)n2)n1)C(F)(F)F`, the GI50 was 41.9 µM and the TGI was over 100 µM.
For `O=C(COc1ccc(/C=C2\Oc3ccc4ccccc4c3C2=O)cc1)c1ccc([N+](=O)[O-])cc1` the same measures were 1.07 µM and 3.05 µM.
The matching figures for `C[C@@H]1CC[C@H]2[C@@H](C)C(O)O[C@@H]3O[C@]4(C)CC[C@@H]1[C@]32OO4` (some centres undefined): 3.58 µM and 33.2 µM.
For `CNC(=O)c1cc(Oc2ccc3nc(NC(=O)Nc4ccc(CN5CCOCC5)c(C(F)(F)F)c4)sc3c2)ccn1` the same measures were 1.45 µM and 4.95 µM.
For the compound `O=C(NNc1nc2cc(F)cc(F)c2n2cccc12)c1ccncn1`, the GI50 is over 30 µM and the TGI was over 30 µM.
Consider `Nc1nc(N)c2c(n1)NC(c1sc(Cl)nc1Cl)CC(c1ccccc1)=N2` (centres undefined), for which the GI50 is 2.12 µM and the TGI turned out to be 8.48 µM.
For `NC(N)=NN=c1c(=O)c2ccccc2c1=O` the same measures were 16.4 µM and 30.7 µM.
For `O=C(Nc1ccc(OS(=O)(=O)c2ccc(F)cc2)cc1)C12CC3CC(CC(C3)C1)C2` the same measures were 1.33 µM and over 100 µM.
The matching figures for `CN1CCN(CCCOc2cccc3nc(Nc4cc(Cl)cc(Cl)c4)ccc23)CC1`: 1.69 µM and 3.22 µM.
On to `CC(=O)N[C@H](C)[C@@H](O)[C@@H](C)[C@@H]1OC(=O)/C=C/C=C(C)\C=C\[C@]2(C)C[C@@H](NS(C)(=O)=O)C=C[C@@H]2/C=C(C)/C=C/[C@H]1C`, for which the GI50 is 0.00245 µM and 0.00435 µM; the TGI was 2.12 µM and 7.39 µM.
Regarding `Oc1ccc(NC(=S)Nc2ccccc2)cc1`, the GI50 is over 100 µM and the TGI was over 100 µM.
Take `C=CC(=O)N[C@@H]1CN(c2nc(Nc3cn(C)nc3OC)c3ncn(C)c3n2)C[C@H]1F`: the GI50 is 0.0256 µM and the TGI was 0.265 µM.
For `O=c1cc(-c2ccc(Cl)cc2)[nH]c2ccccc12` the same measures were 18.6 µM and over 100 µM.
The matching figures for `CCN(C(=O)N1CCN(c2cc3c(cc2F)c(=O)c(C(=O)O)cn3C2CC2)CC1)c1nc(-c2ccccc2)cs1`: 2.52 µM and 8.82 µM.
For `COc1ccc(C(=O)/C=C/c2sc(Cl)nc2Cl)cc1` the same measures were 1.38 µM and 3.51 µM.
For `Cc1nnc(C[C@@H]2C=C(c3ccc(Cl)cc3)c3ccccc3-n3c(C)nnc32)o1`, the GI50 was 0.745 µM and the TGI came out at 22.8 µM.
The matching figures for `O=C(NC1CCN(Cc2ccccc2)CC1)c1cc(-c2cccnc2)nc2ccc(Cl)cc12`: 4.48 µM and 57 µM.
As to `Cc1cccc2c(C3=C(c4cn(C)c5ccccc45)C(=O)NC3=O)cn(C)c12`, the GI50 is 13.9 µM and the TGI was over 25 µM.
For `COc1cc2c(Oc3ccc(NC(=O)C4(C(=O)Nc5ccc(F)cc5)CC4)cc3F)ccnc2cc1OCCCN1CCOCC1`, the GI50 is 0.92 µM and 1.05 µM; the TGI was 2.29 µM and 3.16 µM.
`C[C@@H](O)[C@@H](C)Oc1nc(Nc2ccc(S(=N)(=O)C3CC3)cc2)ncc1C(F)(F)F` (some centres undefined): the GI50 is 0.023 µM and the TGI was 0.0615 µM.
In the case of `Cc1cc(F)c(C(=O)Nc2cccc(-c3nncn3C(C)C)n2)cc1-n1cnc(C2CC2)c1`, the GI50 was 7.76 µM and the TGI came to 83.3 µM.
The matching figures for `CCOC(=O)/C(=C/CC/C(C)=C/CC/C(C)=C/CCc1ccoc1)CC(=O)N1CCCCC1`: 2.11 µM and 7.26 µM.
The matching figures for `COc1ccc(-c2nn(-c3cccc(Cl)c3)cc2/C=C2\NC(=S)N(c3ccc(Cl)cc3)C2=O)cc1`: 3.03 µM and 6.89 µM.
The matching figures for `O=CC(OC(=O)c1ccccc1)C(OC(=O)c1ccccc1)C(COC(c1ccccc1)(c1ccccc1)c1ccccc1)OC(=O)c1ccccc1` (centres undefined): 11.8 µM and 26.9 µM.
Turning to `Clc1ccc(-c2cc(-c3ccccc3)nc(N3CCN(CCCNc4ccnc5cc(Cl)ccc45)CC3)n2)cc1`, the GI50 is 0.352 µM and the TGI is 1.61 µM.
In the case of `COc1ccccc1C1C2=C(COC2=O)Oc2cc3c(cc21)OCO3` (centres undefined), the GI50 was 5.08 µM and the TGI was over 100 µM.
For `C1=N[C@]23C(=N[C@H](N=C2NCc2ccco2)[C@]24N=CNC2=N[C@H]3N=C4NCc2ccco2)N1` the same measures were 26.6 µM and over 100 µM.
The matching figures for `CN(C)c1ccc(C(=S)c2ccc(N(C)C)cc2)cc1`: 2.05 µM and 8.21 µM.
The matching figures for `Cc1c2cnccc2c(C)c2c1c1cc(O)ccc1n2C(C)C`: 2.12 µM and 4.74 µM.
Consider `CC/C=C\C[C@H]1C/C=C2/C(=O)C=C[C@H]2C/C=C\CCCC(=O)O1`, for which the GI50 is 1.56 µM and the TGI is 7.95 µM.
The matching figures for `COc1ccccc1-n1cnc(N)c1C(=O)c1cc(OC)c(OC)c(OC)c1`: 1.85 µM and 6.57 µM.
For `Cc1cccc2c3c(sc12)C(c1ccc(F)cc1)C(C#N)=C(/N=C/c1ccc(Cl)cc1)O3` (centres undefined) the same measures were 0.383 µM and 12.6 µM.
